Key:
[1] = target: mTOR enzyme (mTOR(1360-2549)+GBL) (Homo sapiens, UniProt P42345); assay: In vitro mTOR kinase assay (TR-FRET); type: biochemical; conditions: 0.25 nM mTOR+GBL, 8 uM ATP; values tied to compounds by order of Table 1; 'x or y' = two alternative values for separated diastereomers of unassigned stereochemistry; read-out: activity level (Ki) in the mTOR kinase assay
Description: a. In Vitro mTOR Kinase Assay
The reaction is stopped by an addition of a Terbium-labeled phospho-specific antibody, e.g., Tb-labeled anti-p4E-BP1 T37/T46, (Invitrogen, product #PR8835A), EDTA, and TR-FRET buffer solution (Invitrogen, Product #PR3756B). Product formation is detected by way of time-resolved fluorescence resonance energy transfer (TR-FRET), which occurs when the phosphorylated substrate and labeled antibody are in close proximity due to phospho-specific binding. Enzymatic activity is measured as an increase in TR-FRET signal using a Perkin Elmer Envision plate reader.
Compound activity is tested in 10 point dose curves starting at the highest final concentration of 10 uM. They are serially diluted in 100% DMSO prior to further dilution with assay buffer. […] 8 μL of solution containing 2 nM Tb-anti-p4E-BP1 antibody & 10 mM EDTA diluted TR-FRET buffer is then added and incubated for 30 minutes to stop the reaction. The plate is scanned with the Envision plate reader. Ki values are calculated in Assay Explorer using the Morrison ATP-competitive tight binding equation for Ki apparent determination.

PC3 cells = assay: In vitro cell proliferation assay; type: cell-based, human; conditions: values tied to compounds by order of Table 1
Experimental: c. In Vitro Cell Proliferation Assay Efficacy of Formula I compounds were measured by a cell proliferation assay employing the following protocol: 1. An aliquot of 20 μl of cell culture containing about 10^3 cells (PC3 or MDAMB361.1) in medium was deposited in each well of a 384-well, opaque-walled plate. 2. Control wells were prepared containing medium and without cells; Cells were allowed to settle overnight. 3. The compound was added to the experimental wells and incubated for 3 days. 4. The plates were equilibrated to room temperature for approximately 30 minutes. 5. A volume of CellTiter-Glo Reagent equal to the volume of cell culture medium present in each well was added. […] The contents were mixed for 2 minutes on an orbital shaker to induce cell lysis. 7. The plate was incubated at room temperature for 20 minutes to stabilize the luminescence signal. 8. Luminescence was recorded and reported in graphs as RLU=relative luminescence units. Alternatively, cells were seeded at optimal density in a 96 well plate and incubated for 4 days in the presence of test compound. Alamar BlueTM was subsequently added to the assay medium, and cells were incubated for 6 h before reading at 544 nm excitation, 590 nm emission. EC50 values were calculated using a sigmoidal dose response curve fit.

[2] = Homo sapiens, PC-3, with PC3 cells

Sequence of mTOR enzyme (mTOR(1360-2549)+GBL) (P42345 1360-2549, species assumed): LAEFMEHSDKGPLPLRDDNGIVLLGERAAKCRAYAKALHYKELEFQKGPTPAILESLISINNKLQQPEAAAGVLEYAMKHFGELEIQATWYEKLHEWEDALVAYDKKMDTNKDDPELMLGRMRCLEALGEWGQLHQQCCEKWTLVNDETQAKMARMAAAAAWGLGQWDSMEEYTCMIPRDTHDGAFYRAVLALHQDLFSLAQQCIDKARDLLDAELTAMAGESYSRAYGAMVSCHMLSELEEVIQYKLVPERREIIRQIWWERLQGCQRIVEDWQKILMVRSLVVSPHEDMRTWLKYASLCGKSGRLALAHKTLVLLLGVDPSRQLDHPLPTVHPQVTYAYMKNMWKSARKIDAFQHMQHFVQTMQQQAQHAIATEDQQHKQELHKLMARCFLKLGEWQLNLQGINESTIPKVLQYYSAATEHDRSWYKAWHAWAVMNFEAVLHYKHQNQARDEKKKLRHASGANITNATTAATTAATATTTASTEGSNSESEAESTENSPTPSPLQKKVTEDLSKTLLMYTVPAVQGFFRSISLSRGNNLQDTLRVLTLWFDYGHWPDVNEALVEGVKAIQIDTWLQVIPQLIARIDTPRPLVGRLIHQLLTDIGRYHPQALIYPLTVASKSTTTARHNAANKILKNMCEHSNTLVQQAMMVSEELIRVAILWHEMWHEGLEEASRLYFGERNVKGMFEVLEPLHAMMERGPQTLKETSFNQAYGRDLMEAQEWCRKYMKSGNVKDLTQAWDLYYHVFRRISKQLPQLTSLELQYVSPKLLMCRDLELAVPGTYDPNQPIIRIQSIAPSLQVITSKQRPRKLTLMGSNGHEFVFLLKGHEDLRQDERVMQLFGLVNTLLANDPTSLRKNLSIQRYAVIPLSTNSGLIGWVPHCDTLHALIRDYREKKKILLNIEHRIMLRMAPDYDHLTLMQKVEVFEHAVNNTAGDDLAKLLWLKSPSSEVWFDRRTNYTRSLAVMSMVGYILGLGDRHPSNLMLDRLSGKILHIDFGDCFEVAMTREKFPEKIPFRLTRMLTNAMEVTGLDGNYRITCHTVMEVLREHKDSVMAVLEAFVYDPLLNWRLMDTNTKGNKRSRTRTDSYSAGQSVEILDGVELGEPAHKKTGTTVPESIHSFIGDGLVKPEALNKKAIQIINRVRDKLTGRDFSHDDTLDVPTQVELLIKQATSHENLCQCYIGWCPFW
Sequence of mTOR enzyme (mTOR(1360-2549)+GBL) (Q9BVC4 whole entry partner, species assumed): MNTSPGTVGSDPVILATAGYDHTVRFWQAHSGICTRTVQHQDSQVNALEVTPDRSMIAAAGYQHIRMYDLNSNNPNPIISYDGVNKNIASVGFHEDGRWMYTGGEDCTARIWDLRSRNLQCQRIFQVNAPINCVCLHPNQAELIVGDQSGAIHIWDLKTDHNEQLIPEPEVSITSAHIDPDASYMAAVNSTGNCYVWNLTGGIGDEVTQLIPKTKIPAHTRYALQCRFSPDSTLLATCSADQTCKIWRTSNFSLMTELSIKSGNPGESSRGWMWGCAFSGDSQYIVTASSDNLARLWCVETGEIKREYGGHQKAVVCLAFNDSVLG

Structure (SMILES)	Ki [1]	EC50 (PC3 cells; [2])	EC50 (PC3 cells; with PC3 cells)
CCNC(=O)Nc1ccc(-c2nc(N3CCOC[C@@H]3C)c3c(n2)C(C)(CCn2ccnc2)OC3)cc1 (single isomer, unassigned) [Example 80 es (R)]	9 nM	454 nM	
CCNC(=O)Nc1ccc(-c2nc(N3CCOC[C@@H]3C)c3c(n2)C(C)(CCn2ccnc2)OC3)cc1 (single isomer, unassigned) [Example 80 es (S)]	2 nM		316 nM
CCNC(=O)Nc1ccc(-c2nc(N3CCOC[C@@H]3C)c3c(n2)C(C)(CCn2ccnc2C)OC3)cc1 (single isomer, unassigned) [Example 81 et (S)]	7 nM	402 nM	
O=C(Nc1ccc(-c2nc3c(c(N4[C@@H]5CC[C@H]4COC5)n2)CCCO3)cc1)NC1COC1 [1-(4-(4-((1R,5S)-3-oxa-8-azabicyclo[3.2.1]octan-8-yl)-6,7-dihydro-5H-pyrano[2,3-d]pyrimidin-2-yl)phenyl)-3-(oxetan-3-yl)urea]	5 nM	238 nM	
CCNC(=O)Nc1ccc(-c2nc3c(c(N4[C@@H]5CC[C@H]4COC5)n2)CCCO3)cc1 [1-(4-(4-((1R,5S)-3-oxa-8-azabicyclo[3.2.1]octan-8-yl)-6,7-dihydro-5H-pyrano[2,3-d]pyrimidin-2-yl)phenyl)-3-ethylurea]	1 nM	108 nM	
CCNC(=O)Nc1ccc(-c2nc3c(c(N4CCOC[C@@H]4C)n2)COC(COCc2ccccc2)C3)cc1 (stereo partly drawn) [1-(4-(7-(benzyloxymethyl)-4-((S)-3-methylmorpholino)-7,8-dihydro-5H-pyrano[4,3-d]pyrimidin-2-yl)phenyl)-3-ethylurea]	16 nM	585 nM	
CCNC(=O)Nc1ccc(-c2nc3c(c(N4CCOCC4)n2)COC(c2ccccn2)C3)cc1 (stereo not drawn) [1-ethyl-3-(4-(4-morpholino-7-(pyridin-2-yl)-7,8-dihydro-5H-pyrano[4,3-d]pyrimidin-2-yl)phenyl)urea]	27 nM	914 nM	
CCNC(=O)Nc1ccc(-c2nc(N3CCOC[C@@H]3C)c3c(n2)[C@@](C)(CC(C)O)OC3)cc1 (stereo partly drawn) [1-ethyl-3-(4-((7R)-7-(2-hydroxypropyl)-7-methyl-4-((S)-3-methylmorpholino)-5,7-dihydrofuro[3,4-d]pyrimidin-2-yl)phenyl)urea]	2 nM	39 nM	
CCNC(=O)Nc1ccc(-c2nc(N3CCOC[C@@H]3C)c3c(n2)[C@](C)(CC(C)O)OC3)cc1 (stereo partly drawn) [1-ethyl-3-(4-((7S)-7-(2-hydroxypropyl)-7-methyl-4-((S)-3-methylmorpholino)-5,7-dihydrofuro[3,4-d]pyrimidin-2-yl)phenyl)urea]	2 nM	25 nM	
C[C@H]1COCCN1c1nc(-c2ccc(Nc3nccc(=O)[nH]3)cc2)nc2c1COC(CO)C2 (stereo partly drawn) [2-(4-(7-(hydroxymethyl)-4-((S)-3-methylmorpholino)-7,8-dihydro-5H-pyrano[4,3-d]pyrimidin-2-yl)phenylamino)pyrimidin-4(3H)-one]	4 nM	2800 nM	
CCNC(=O)Nc1ccc(-c2nc3c(c(N4CCOC[C@@H]4C)n2)COC(C)(C)C3)cc1 [(S)-1-(4-(7,7-dimethyl-4-(3-methylmorpholino)-7,8-dihydro-5H-pyrano[4,3-d]pyrimidin-2-yl)phenyl)-3-ethylurea]	3 nM	50 nM	
CCNC(=O)Nc1ccc(-c2nc3c(c(N4CCOC[C@@H]4CC)n2)CCCO3)cc1 [Example 2, (S)-1-ethyl-3-(4-(4-(3-ethylmorpholino)-6,7-dihydro-5H-pyrano[2,3-d]pyrimidin-2-yl)phenyl)urea]	1 nM	144 nM	
CCNC(=O)Nc1ccc(-c2nc3c(c(N4C[C@@H]5C[C@H]4CO5)n2)CCCO3)cc1 [Example 3, 1-(4-(4-((1S,4S)-2-oxa-5-azabicyclo[2.2.1]heptan-5-yl)-6,7-dihydro-5H-pyrano[2,3-d]pyrimidin-2-yl)phenyl)-3-ethylurea]	22 nM	1200 nM	
CC[C@H]1COCCN1c1nc(-c2ccc(Nc3nccc(=O)[nH]3)cc2)nc2c1COCC2 [Example 4, (S)-2-(4-(4-(3-ethylmorpholino)-7,8-dihydro-5H-pyrano[4,3-d]pyrimidin-2-yl)phenylamino)pyrimidin-4(3H)-one]	1 nM	30 nM	
CC[C@H]1COCCN1c1nc(-c2ccc(Nc3cccc(=O)[nH]3)cc2)nc2c1COCC2 [Example 5, (S)-6-(4-(4-(3-ethylmorpholino)-7,8-dihydro-5H-pyrano[4,3-d]pyrimidin-2-yl)phenylamino)pyridin-2(1H)-one]	2 nM	297 nM	
CCNC(=O)Nc1ccc(-c2nc3c(c(N4CCOC[C@@H]4C)n2)CCOC3)cc1 [Example 13 al, (S)-1-ethyl-3-(4-(4-(3-methylmorpholino)-6,8-dihydro-5H-pyrano[3,4-d]pyrimidin-2-yl)phenyl)urea]	2 nM	194 nM	
CCNC(=O)Nc1ccc(-c2nc3c(c(N4CCOCC4)n2)CCC2(CC2)O3)cc1 [Example 14, 1-ethyl-3-(4-(4′-morpholino-5′,6′-dihydrospiro[cyclopropane-1,7′-pyrano[2,3-d]pyrimidine]-2′-yl)phenyl)urea]	3 nM	84 nM	
C[C@H]1COCCN1c1nc(-c2ccc(NC(=O)NCCO)cc2)nc2c1COCC2 [Example 24, (S)-1-(2-hydroxyethyl)-3-(4-(4-(3-methylmorpholino)-7,8-dihydro-5H-pyrano[4,3-d]pyrimidin-2-yl)phenyl)urea]	3 nM	541 nM	
C[C@H]1COCCN1c1nc(-c2ccc(NC(=O)NC3COC3)cc2)nc2c1COCC2 [Example 25, (S)-1-(4-(4-(3-methylmorpholino)-7,8-dihydro-5H-pyrano[4,3-d]pyrimidin-2-yl)phenyl)-3-(oxetan-3-yl)urea]	13 nM	1500 nM	
C[C@H]1COCCN1c1nc(-c2ccc(NC(=O)NC3CCC3)cc2)nc2c1COCC2 [Example 26, (S)-1-cyclobutyl-3-(4-(4-(3-methylmorpholino)-7,8-dihydro-5H-pyrano[4,3-d]pyrimidin-2-yl)phenyl)urea]	14 nM	1600 nM	
Cc1nnc(NC(=O)Nc2ccc(-c3nc4c(c(N5CCOC[C@@H]5C)n3)COCC4)cc2)o1 [Example 27, (S)-1-(5-methyl-1,3,4-oxadiazol-2-yl)-3-(4-(4-(3-methylmorpholino)-7,8-dihydro-5H-pyrano[4,3-d]pyrimidin-2-yl)phenyl)urea]	26 nM	313 nM	
C[C@H]1COCCN1c1nc(-c2ccc(Nc3nccc(=O)[nH]3)cc2)nc2c1COCC2 [Example 28, (S)-2-(4-(4-(3-methylmorpholino)-7,8-dihydro-5H-pyrano[4,3-d]pyrimidin-2-yl)phenylamino)pyrimidin-4(3H)-one]	2 nM	194 nM	
C[C@H]1COCCN1c1nc(-c2ccc(Nc3cccc(=O)[nH]3)cc2)nc2c1COCC2 [Example 29, (S)-6-(4-(4-(3-methylmorpholino)-7,8-dihydro-5H-pyrano[4,3-d]pyrimidin-2-yl)phenylamino)pyridin-2(1H)-one]	5 nM	341 nM	
C[C@H]1COCCN1c1nc(-c2ccc(NC(=O)Nc3ccn(C)n3)cc2)nc2c1CCCO2 [Example 30, (S)-1-(1-methyl-1H-pyrazol-3-yl)-3-(4-(4-(3-methylmorpholino)-6,7-dihydro-5H-pyrano[2,3-d]pyrimidin-2-yl)phenyl)urea]	1 nM	172 nM	
C[C@H]1COCCN1c1nc(-c2ccc(NC(=O)Nc3cnn(C)c3)cc2)nc2c1CCCO2 [Example 31, (S)-1-(1-methyl-1H-pyrazol-4-yl)-3-(4-(4-(3-methylmorpholino)-6,7-dihydro-5H-pyrano[2,3-d]pyrimidin-2-yl)phenyl)urea]	2 nM	57 nM	
C[C@H]1COCCN1c1nc(-c2ccc(NC(=O)NC3COC3)cc2)nc2c1CCCO2 [Example 32, (S)-1-(4-(4-(3-methylmorpholino)-6,7-dihydro-5H-pyrano[2,3-d]pyrimidin-2-yl)phenyl)-3-(oxetan-3-yl)urea]	4 nM	325 nM	
C[C@H]1COCCN1c1nc(-c2ccc(NC(=O)NCCO)cc2)nc2c1CCCO2 [Example 33, (S)-1-(2-hydroxyethyl)-3-(4-(4-(3-methylmorpholino)-6,7-dihydro-5H-pyrano[2,3-d]pyrimidin-2-yl)phenyl)urea]	1 nM	111 nM	
